Publication PMC11866022, “Long-Chain Cyclic Arylguanidines as Multifunctional Serotonin Receptor Ligands with Antiproliferative Activity” (ACS Omega, 2025)
“And” between values parts separate entries of the source, which are not always exact repeats. Identical values can stand only once. Like-named read-outs stand apart in the source and are kept apart here.

Assays:
[1] = calibration standards, assigned values, no reference given; cited from earlier work
[2] = test system: LN-229 glioblastoma cells; test: Antiproliferative activity (MTS), LN-229; assay type: cell-based, human; conditions: MTS assay, 72 h
Description: (§1) These cell lines were characterized by different mutation profiles, the main one being the variable status of the p53 protein. In detail, U87MG cells have a wild-type p53 protein, while astrocytoma and the rest of GBM cells harbor mutated p53 protein. Additional assays were performed on MCF7 breast cancer and AsPC-1 pancreatic cancer cells. The wide range of tested lines was aimed at screening the anticancer potential of the tested compounds. The first represents one of the most common and the second one of the most aggressive cancers in the world. Comparing the activity of compounds on GBM cells to other types of cancer may reveal their selectivity and usefulness in targeted therapies. The cytotoxicity of the compounds on normal human astrocytes (NHA) and Feline catus astrocyte (PG-4) was determined. Tests on normal lines serve to verify the potential toxicity of the tested compounds on healthy cells. Due to the targeting of CNS tumors, astrocytes were selected as normal lines.
(§2) The detailed procedure is presented in previous publications.[53] […] Cells were cultured in appropriate media, supplemented with FBS, antibiotics, and other supplements, and incubated at 37 °C with 5% CO2. […] Cell viability was assessed using the MTS assay, and the inhibitory concentration (IC50) was calculated using GraphPad Prism 8.0. Each compound was tested in triplicate across multiple experiments.

[3] = test system: normal human astrocytes (NHA); test: Cytotoxicity (MTS), normal human astrocytes; assay type: cell-based; conditions: 72 h, normal human astrocytes, MTS assay
Description: as §1, with “The chosen group of ligands was further examined for their ability to inhibit proliferation across multiple cancer cell lines related to the CNS system (1321N1, U87MG, LN-229, and U-251). These” for “These”
(§3) The detailed procedure is presented in previous publications.[53] Briefly, the study utilized various human cancer and normal cell lines, including LN-229 (glioblastoma), MCF7 (breast carcinoma), HepG2 (hepatoma), U-251 (glioblastoma), U87MG (glioblastoma), AsPC-1 (pancreatic adenocarcinoma), and NHA (normal human astrocytes). Cells were cultured in appropriate media, supplemented with FBS, antibiotics, and other supplements, and incubated at 37 °C with 5% CO2. Compounds were dissolved in DMSO, prepared at various concentrations (1–25 μM), and applied to the cells for 72 h. Cell viability was assessed using the MTS assay, and the inhibitory concentration (IC50) was calculated using GraphPad Prism 8.0. Each compound was tested in triplicate across multiple experiments.

[4] = test system: U-251 glioblastoma cells; test: Antiproliferative activity (MTS), U-251; assay type: cell-based, human; conditions: MTS assay, 72 h
Description: as §1, §2

[5] = calibration standards, assigned values, no reference given; cited from earlier work; remark: listed apart in the source
[6] = test system: HSA and AGP (24:1); test: in vitro; conditions: human, plasma
[7] = test system: HSA and AGP in a ratio 24:1; conditions: human
[8] = test system: 1321N1 astrocytoma cells; test: Antiproliferative activity (MTS), 1321N1; assay type: cell-based, human; conditions: MTS assay
Description: as §1, §2
Supplementary materials - Biological research […]

[9] = Lipophilicity, chromatographic hydrophobicity index on C18 (Valko protocol); assay type: physicochemical
Description: (§4) Lipophilicity and affinity for phospholipids for each investigated molecule were assessed. Additionally, selected compounds with the highest biological activities have been characterized by their affinity plasma proteins. All experiments were performed using protocols developed by Valko.[35] These methods facilitated the calculation of chromatographic hydrophobicity indices (CHI) and plasma protein binding percentages (%PPB) in a biochromatographic experiment, with results compared to the reference. A detailed description of the experiments is provided in the Supporting Information (SI), along with the raw data. […] Although high lipophilicity may limit the medical use of the analyzed compounds since they may tend to accumulate excessively in the human body, it is remarkable that several clinically used drugs also have high lipophilicity. […] (Table 5).
(§5) The detailed procedure is presented in previous publications.[53] High-performance liquid chromatography (HPLC) analyses were conducted using the Prominence-1 LC-2030C 3D system (Shimadzu) with a DAD detector, employing three different chromatographic columns with specific stationary phases and mobile phases. The analysis was performed at 30 °C with a flow rate of 1.5 mL/min for IAM and C18 columns, and 0.9 mL/min for the Chiralpak column. Calibration standards for the columns were sourced from various suppliers and dissolved in dimethyl sulfoxide. Detection occurred in the UV range (190–300 nm) with a 5 μL injection volume. Each compound was analyzed in triplicate. Retention times for the tested compounds and calibration standards are provided in the Supporting Information (Tables S1 and S2).

[10] = test system: U87MG glioblastoma cells; test: Antiproliferative activity (MTS), U87MG; assay type: cell-based, human; conditions: MTS assay
Description: as §1, §2
Supplementary materials - Biological research
B) U87MG glioblastoma multiforme line.
and U87MG glioblastoma multiforme line for C) PP 3; D) PP 6; E) PP 8; F) PP 10; G) PP 11; H) PP

[11] = biological target: T1, human serum albumin (HSA) (Homo sapiens, UniProt P02768); test: HSA binding by biochromatography (HSA column); assay type: in vitro ADME
T1 construct: purchased
Description: as §4, §5

[12] = test system: AsPC-1 pancreatic cancer cells; test: Antiproliferative activity (MTS), AsPC-1; assay type: cell-based, human; conditions: MTS assay, 72 h
Description: as §1, with “The chosen group of ligands was further examined for their ability to inhibit proliferation across multiple cancer cell lines related to the CNS system (1321N1, U87MG, LN-229, and U-251). These” for “These”
as §3

[13] = test system: MCF7 breast cancer cells; test: Antiproliferative activity (MTS), MCF7; assay type: cell-based, human; conditions: MTS assay, 72 h
Description: as §1, §2

[14] = biological target: T2, 5-HT6 (Homo sapiens, UniProt P50406); test: Radioligand binding assay, 5-HT6 ([3H]-LSD); conditions: HEK293 cell line with human 5-HT6R; 2 nM [3H]-LSD
T2 construct: expressed in transfected cells; host or cells: HEK293
Description: Ligand affinity for 5-HT6 receptors was subsequently tested with a radioligand binding assay, using the HEK293 cell line with human 5-HT6R, aiming to select compounds with the strongest affinity. Three compounds belonging to 2-naphthalenesulfonamide derivatives of 3,4-dihydroquinazolin-2-amines were obtained (Table 1).
The detailed procedure is presented in previous publications.[53] Assays were performed by incubating for 1 h at 37 °C (room temperature for 5-HT1A) in 200 μL volumes on 96-well plates. The reaction was terminated by rapid filtration using Unifilter plates, and radioactivity on the filters was measured with a PerkinElmer Microbeta plate reader. Radioligands used were:
Eight concentrations (10^–4 to 10^–11 M) were tested in triplicate for each compound. Inhibition constants (Ki) were calculated using the Cheng–Prusoff equation.[54] The results are expressed as the means of at least two independent experiments.

[15] = Affinity to phospholipids, CHI IAM (Valko protocol); assay type: physicochemical; conditions: IAM column
Description: as §4, §5

[16] = Metabolic stability in mouse liver microsomes; assay type: in vitro ADME; conditions: MLMs, 120 min
Text: Moving on to the next parameter, which is metabolism, we determined metabolic stability, using mouse liver microsomes (MLMs). […]
Main metabolic pathways are marked in red.

T2 sequence (P50406 whole entry): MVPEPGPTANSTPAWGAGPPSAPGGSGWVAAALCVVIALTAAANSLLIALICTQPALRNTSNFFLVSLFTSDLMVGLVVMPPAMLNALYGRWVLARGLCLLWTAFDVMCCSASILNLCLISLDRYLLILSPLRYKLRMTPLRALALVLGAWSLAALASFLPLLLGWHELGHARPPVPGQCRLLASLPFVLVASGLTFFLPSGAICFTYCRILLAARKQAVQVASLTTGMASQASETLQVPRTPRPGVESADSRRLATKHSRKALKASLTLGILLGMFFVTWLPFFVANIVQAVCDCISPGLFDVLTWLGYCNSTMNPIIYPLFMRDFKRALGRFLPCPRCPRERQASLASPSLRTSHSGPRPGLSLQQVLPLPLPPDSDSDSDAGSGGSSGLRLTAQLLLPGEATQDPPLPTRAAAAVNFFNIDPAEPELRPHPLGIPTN
T1 sequence (P02768 25-609): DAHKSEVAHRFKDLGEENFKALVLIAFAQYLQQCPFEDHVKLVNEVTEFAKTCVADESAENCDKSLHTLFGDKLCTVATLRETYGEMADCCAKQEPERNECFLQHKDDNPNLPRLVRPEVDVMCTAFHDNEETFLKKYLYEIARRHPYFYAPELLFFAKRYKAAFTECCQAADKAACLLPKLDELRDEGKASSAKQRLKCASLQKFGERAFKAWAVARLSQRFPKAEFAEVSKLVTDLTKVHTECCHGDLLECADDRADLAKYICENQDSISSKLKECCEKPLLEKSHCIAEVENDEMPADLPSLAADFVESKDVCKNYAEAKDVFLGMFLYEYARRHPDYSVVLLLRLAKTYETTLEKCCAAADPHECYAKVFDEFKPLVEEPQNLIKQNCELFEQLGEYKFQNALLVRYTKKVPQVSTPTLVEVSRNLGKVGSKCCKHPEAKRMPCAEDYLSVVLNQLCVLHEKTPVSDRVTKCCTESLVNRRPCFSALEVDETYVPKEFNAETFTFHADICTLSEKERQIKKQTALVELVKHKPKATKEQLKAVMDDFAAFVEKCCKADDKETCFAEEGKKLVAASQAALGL

## CC(=O)Nc1ccc(O)cc1 [Paracetamol]
[1]
  CHI IAM of the calibration set: 2.9

## CN(C)C/C=C/C(=O)Nc1cc2c(Nc3ccc(F)c(Cl)c3)ncnc2cc1O[C@H]1CCOC1 [Afatinib, reference compound]
[2]; Homo sapiens, LN-229
  IC50: 9.8 µM
[3]; Homo sapiens, Astrocyte
  IC50: 7.5 µM
[4]; Homo sapiens, U-251
  IC50: 27 µM

## CCCCCCCC(=O)c1ccccc1 [Octanophenone]
[1]
  CHI IAM of the calibration set: 49.4

## c1ccc2[nH]ccc2c1 [Indole]
[5]
  CHI C18 at pH 2.6 of the calibration set: 72.1

## CC(=O)CC(c1ccccc1)c1c(O)c2ccccc2oc1=O (centres unmarked) [Warfarin]
[6]
  fraction unbound: 0.015
[7]
  PPB kD: 9.5 µM

## N-{2-[4-(1-Benzothiophen-4-yl)piperazin-1-yl]ethyl}-1,2-dihydroquinazolin-2-amine [PP 22]
[8]
  IC50: 10.4 ± 0.6 µM
[9]
  CHI C18 pH 2.6: 56.4
  CHI C18 pH 7.4: 115.8
  CHI C18 pH 10.5: 168.7
[2]
  IC50: > 25 µM
[10]
  IC50: 13.8 ± 0.9 µM
[11]
  %HSA: 98.4%
[3]
  IC50: 8.1 ± 0.2 µM
[4]
  IC50: 4.3 ± 0.6 µM
[12]
  IC50: 12.5 ± 0.4 µM
[13]
  IC50: 14.5 ± 0.2 µM
[14]
  Ki: 0.278 ± 0.07 µM
[15]
  CHI IAM: 56.4

## COc1cc2c(c(OC)c1OC)-c1ccc(OC)c(=O)cc1[C@@H](NC(C)=O)CC2 [Colichicine]
[5]
  CHI C18 at pH 2.6 of the calibration set: 43.9

## CC(=O)c1ccccc1 [Acetophenone]
[1]
  CHI IAM of the calibration set: 17.2
[5]
  CHI C18 at pH 2.6 of the calibration set: 64.1

## CC(=O)Nc1ccccc1 [Acetanilidine]
[1]
  CHI IAM of the calibration set: 11.5

## Cn1c(=O)c2[nH]cnc2n(C)c1=O [Theophylline]
[5]
  CHI C18 at pH 2.6 of the calibration set: 17.9

## CCCCCC(=O)c1ccccc1 [Hexanophenone]
[1]
  CHI IAM of the calibration set: 41.8

## CC1NC(NCCCCCCNS(=O)(=O)c2cccc3ccccc23)=Nc2cccc(F)c21 (centres unmarked) [PP 11, N-{6-[(5-Fluoro-4-methyl-3,4-dihydroquinazolin-2-yl)amino]hexyl}naphthalene-1-sulfonamide]
[8]; Homo sapiens, 1321-N1
  IC50: 5.7 ± 0.1 µM
[9]
  CHI C18 pH 2.6: 103.4
  CHI C18 pH 7.4: 103.1
  CHI C18 pH 10.5: 93.1
[2]; Homo sapiens, LN-229
  IC50: > 25 µM
[10]; Homo sapiens, U-87 MG
  IC50: 8.5 ± 0.7 µM
[11]; HSA column
  %HSA: 99.2%
  logKHSA: 1.75 and 1.8
[3]; Homo sapiens, Astrocyte
  IC50: 4.5 µM
[3]
  IC50: 4.4 ± 1.3 µM
[4]; Homo sapiens, U-251
  IC50: 12.2 ± 0.3 µM
[12]; Homo sapiens, ASPC1
  IC50: 13.8 ± 0.3 µM
[13]; Homo sapiens, MCF7
  IC50: 9.1 ± 0.8 µM
[14]
  Ki: 0.222 ± 0.056 µM
[15]
  CHI IAM: 60.1
[16]
  main metabolic pathway: double hydroxylation and double bond reduction
  metabolic stability, % of remaining: 74.22%

## N-{2-[4-(1,2-Benzothiazol-3-yl)piperazin-1-yl]ethyl}-1,2-dihydroquinazolin-2-amine [PP 21]
[2]
  IC50: 9.9 ± 0.7 µM
[3]
  IC50: 4.7 ± 0.2 µM
[4]
  IC50: 13 ± 0.4 µM
[12]
  IC50: 7.4 ± 0.5 µM
[13]
  IC50: > 25 µM
[14]
  Ki: 0.605 ± 0.151 µM

## CCCCC(=O)c1ccccc1 [Valerophenone]
[1]
  CHI IAM of the calibration set: 37.3
[5]
  CHI C18 at pH 2.6 of the calibration set: 96.4

## CCCCCCC(=O)c1ccccc1 [Heptanophenone]
[1]
  CHI IAM of the calibration set: 45.7

## c1ccc2[nH]cnc2c1 [Benzimidazole]
[5]
  CHI C18 at pH 2.6 of the calibration set: 6.3

## CCCC(=O)c1ccccc1 [Butyrophenone]
[1]
  CHI IAM of the calibration set: 32
[5]
  CHI C18 at pH 2.6 of the calibration set: 87.3

## O=S(=O)(NCCNC1=Nc2ccccc2CN1)c1cccc2ccccc12 [PP 4, N-{2-[(3,4-Dihydroquinazolin-2-yl)amino]ethyl}naphthalene-1-sulfonamide]
[8]; Homo sapiens, 1321-N1
  IC50: > 25 µM
[9]
  CHI C18 pH 2.6: 64.9
  CHI C18 pH 7.4: 79.9
  CHI C18 pH 10.5: 101.9
[2]; Homo sapiens, LN-229
  IC50: > 25 µM
[10]; Homo sapiens, U-87 MG
  IC50: > 25 µM
[11]; HSA column
  %HSA: 94.8%
  logKHSA: 1.18 and 1.2
[4]; Homo sapiens, U-251
  IC50: > 25 µM
[12]; Homo sapiens, ASPC1
  IC50: > 25 µM
[13]; Homo sapiens, MCF7
  IC50: > 25 µM
[14]
  Ki: 4.33 ± 1.08 µM
[15]
  CHI IAM: 50.2

## CCC(=O)c1ccccc1 [Propiophenone]
[1]
  CHI IAM of the calibration set: 25.9
[5]
  CHI C18 at pH 2.6 of the calibration set: 77.4
